Source: US10189863B2, “5,6-dihydro-4H-benzo[b]thieno-[2,3-d]azepine derivatives” (PULMOCIDE LIMITED, priority 2014, dated 2019)

Legend:
[1] = Cell viability: resazurin assay; format: cell-based, human; conditions: human, HEp2 cells
Outline: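 HEp2 cells in 5% FBS DMEM exposed to compounds (0.5% DMSO final) for 5 days at 37 °C/5% CO2, then resazurin added for 6 h; fluorescence read at 545/590 nm. Percent viability loss calculated versus 0.5% DMSO vehicle, with increases shown as negative values; CC50 taken from concentration-response curves where appropriate.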

[2] = tested on: RSV B Washington strain; assay: Assessment of RSV induced CPE in HEp2 cells (RSV B Washington strain); format: cell-based; conditions: human respiratory syncytial virus, HEp2 cells; for IC50: HEp-2, 144 h, 1 MOI, 6 days, read-out: RSV B CPE IC50; for inhibition at 1 µg/mL: Inhibition (%) at 1 μg/mL, read-out: RSV B CPE % Inhibition
Outline: (§1)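 HEp2 cells were infected at MOI 1 with RSV A2 or RSV B Washington, with compound added at the same time (0.5% DMSO final). Incubation was 5 days for A2 and 6 days for B, then viability was read by resazurin fluorescence (545/590 nm) after 6 h. IC50, IC75 and IC90 came from concentration-response curves.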

[3] = tested on: RSV A2 strain; assay: Assessment of RSV induced CPE in HEp2 cells (RSV A2 strain); format: cell-based; conditions: human respiratory syncytial virus, HEp2 cells; for IC50: HEp-2, 120 h, 1 MOI, 5 days, read-out: RSV A2 CPE IC50; for inhibition at 0.01 µg/mL / inhibition at 0.1 µg/mL: HEp-2; for inhibition at 0.01 µg/mL: Inhibition (%) at 0.01 μg/mL; for inhibition at 0.1 µg/mL: Inhibition (%) at 0.1 μg/mL, read-out: RSV A2 CPE % Inhibition
Outline: as §1

IC50 [2] [nM] | IC50 [3] [nM] | Structure (SMILES) | CC50 at 5 days [1] [nM] | inhibition at 1 µg/mL ([2]; HEp-2) [%] | inhibition at 0.01 µg/mL [3] [%] | inhibition at 0.1 µg/mL [3] [%] | inhibition at 0.1 µg/mL ([2]; HEp-2, Inhibition (%) at 0.1 μg/mL) [%]
16.2 | 0.15 | COCCOc1cccc(F)c1NC(=O)c1cc2c(s1)-c1ccccc1N(C(=O)c1ccc(NC(=O)c3cc(C)cnc3N3CC4(CCOCC4)C3)cc1)CC2 [Example 55, N-(2-fluoro-6-(2-methoxyethoxy)phenyl)-6-(4-(5-methyl-2-(7-oxa-2-azaspiro[3.5]nonan-2-yl)nicotinamido)benzoyl)-5,6-dihydro-4H-benzo[b]thieno[2,3-d]azepine-2-carboxamide] | > 12900 | 100 | 100 |  | 
4.1 | 0.14 | Cc1cnc(N2CC3(CCOCC3)C2)c(C(=O)Nc2ccc(C(=O)N3CCc4cc(C(=O)Nc5c(C)cccc5Cl)sc4-c4ccccc43)cc2)c1 [Example 56, N-(2-chloro-6-methylphenyl)-6-(4-(5-methyl-2-(7-oxa-2-azaspiro[3.5]nonan-2-yl)nicotinamido)benzoyl)-5,6-dihydro-4H-benzo[b]thieno[2,3-d]azepine-2-carboxamide] | > 13700 | 89 |  | 94 | 
1.4 | 0.13 | Cc1cnc(N2CC3(CCOCC3)C2)c(C(=O)Nc2ccc(C(=O)N3CCc4cc(C(=O)Nc5c(Cl)cccc5Cl)sc4-c4ccccc43)cc2)c1 [Example 57, N-(2,6-dichlorophenyl)-6-(4-(5-methyl-2-(7-oxa-2-aza-spiro[3.5]nonan-2-yl)nicotinamido)benzoyl)-5,6-dihydro-4H-benzo[b]thieno[2,3-d]azepine-2-carboxamide] | > 13300 | 74 |  | 91 | 
8.6 | 0.32 | Cc1cnc(N2CC3(CCOCC3)C2)c(C(=O)Nc2ccc(C(=O)N3CCc4cc(C(=O)Nc5c(C)cccc5CO)sc4-c4ccccc43)cc2)c1 [Example 58, N-(2-(hydroxymethyl)-6-methylphenyl)-6-(4-(5-methyl-2-(7-oxa-2-azaspiro[3.5]nonan-2-yl)nicotinamido)benzoyl)-5,6-dihydro-4H-benzo[b]thieno[2,3-d]azepine-2-carboxamide] | > 13700 | 100 | 100 |  | 
13.8 | 0.23 | Cc1cnc(N2CC3(CCOCC3)C2)c(C(=O)Nc2ccc(C(=O)N3CCc4cc(C(=O)Nc5c(F)cc(F)cc5F)sc4-c4ccccc43)c(F)c2)c1 [Example 59, 6-(2-fluoro-4-(5-methyl-2-(7-oxa-2-azaspiro[3.5]nonan-2-yl)nicotinamido)benzoyl)-N-(2,4,6-trifluorophenyl)-5,6-di-hydro-4H-benzo[b]thieno[2,3-d]azepine-2-carboxamide] | > 13200 | 93 |  | 100 | 
9.5 | 0.14 | CCc1cnc(N2CC3(CCOCC3)C2)c(C(=O)Nc2ccc(C(=O)N3CCc4cc(C(=O)Nc5c(C)cccc5F)sc4-c4ccccc43)cc2)c1 [Example 60, 6-(4-(5-ethyl-2-(7-oxa-2-azaspiro[3.5]nonan-2-yl)nicotinamido)benzoyl)-N-(2-fluoro-6-methylphenyl)-5,6-dihydro-4H-benzo[b]thieno[2,3-d]azepine-2-carboxamide] | > 13700 | 100 |  | 92 | 
4.1 | 0.13 | CCc1cnc(N2CC3(CCOCC3)C2)c(C(=O)Nc2ccc(C(=O)N3CCc4cc(C(=O)Nc5c(F)cccc5Cl)sc4-c4ccccc43)cc2)c1 [Example 61, N-(2-chloro-6-fluorophenyl)-6-(4-(5-ethyl-2-(7-oxa-2-azaspiro[3.5]nonan-2-yl)nicotinamido)benzoyl)-5,6-dihydro-4H-benzo[b]thieno[2,3-d]azepine-2-carboxamide] | > 13300 | 100 |  | 97 | 
0.9 | 0.13 | Cc1cnc(N2CC3(CCOCC3)C2)c(C(=O)Nc2ccc(C(=O)N3CCc4cc(C(=O)Nc5c(C)cccc5C#N)sc4-c4ccccc43)cc2)c1 [Example 62, N-(2-cyano-6-methylphenyl)-6-(4-(5-methyl-2-(7-oxa-2-azaspiro[3.5]nonan-2-yl)nicotinamido)benzoyl)-5,6-dihydro-4H-benzo[b]thieno[2,3-d]azepine-2-carboxamide] | > 13800 | 100 | 89 |  | 
1.6 | 0.058 | Cc1cnc(N2CC3(CCOCC3)C2)c(C(=O)Nc2ccc(C(=O)N3CCc4cc(C(=O)Nc5c(F)cccc5C(F)(F)F)sc4-c4ccccc43)cc2)c1 [Example 63, N-(2-fluoro-6-(trifluoromethyl)phenyl)-6-(4-(5-methyl-2-(7-oxa-2-azaspiro[3.5]nonan-2-yl)nicotinamido)benzoyl)-5,6-dihydro-4H-benzo[b]thieno[2,3-d]azepine-2-carboxamide] | > 13000 | 100 | 95 |  | 
1.1 | 0.25 | Cc1cnc(N2CC3(CCOCC3)C2)c(C(=O)Nc2ccc(C(=O)N3CCc4cc(C(=O)Nc5c(C)cccc5C)sc4-c4ccccc43)cc2)c1 [Example 64, N-(2,6-dimethylphenyl)-6-(4-(5-methyl-2-(7-oxa-2-aza-spiro[3.5]nonan-2-yl)nicotinamido)benzoyl)-5,6-dihydro-4H-benzo[b]thieno[2,3-d]azepine-2-carboxamide] | > 14000 | 100 | 100 |  | 
4.8 | 0.15 | C#Cc1cnc(N2CC3(CCOCC3)C2)c(C(=O)Nc2ccc(C(=O)N3CCc4cc(C(=O)Nc5c(F)cccc5Cl)sc4-c4ccccc43)cc2)c1 [Example 66, N-(2-chloro-6-fluorophenyl)-6-(4-(5-ethynyl-2-(7-oxa-2-azaspiro[3.5]nonan-2-yl)nicotinamido)benzoyl)-5,6-dihydro-4H-benzo[b]thieno[2,3-d]azepine-2-carboxamide] | > 13400 | 95 | 95 |  | 
6.5 | 0.17 | COCc1cnc(N2CC3(CCOCC3)C2)c(C(=O)Nc2ccc(C(=O)N3CCc4cc(C(=O)Nc5c(F)cccc5Cl)sc4-c4ccccc43)cc2)c1 [Example 67, N-(2-chloro-6-fluorophenyl)-6-(4-(5-(methoxymethyl)-2-(7-oxa-2-azaspiro[3.5]nonan-2-yl)nicotinamido)benzoyl)-5,6-dihydro-4H-benzo[b]thieno[2,3-d]azepine-2-carboxamide] | > 13100 | 100 | 100 |  | 
17.1 | 0.087 | Cc1cccc(F)c1NC(=O)c1cc2c(s1)-c1ccccc1N(C(=O)c1ccc(NC(=O)c3cc(F)cnc3N3CC4(CCOCC4)C3)cc1)CC2 [Example 68, 6-(4-(5-fluoro-2-(7-oxa-2-azaspiro[3.5]nonan-2-yl)nicotinamido)benzoyl)-N-(2-fluoro-6-methylphenyl)-5,6-dihydro-4H-benzo[b]thieno[2,3-d]azepine-2-carboxamide] | > 13900 | 100 | 90 |  | 
15.3 | 0.45 | Cc1cccc(F)c1NC(=O)c1cc2c(s1)-c1ccccc1N(C(=O)c1ccc(NC(=O)c3cc(Cl)cnc3N3CC4(CCOCC4)C3)cc1)CC2 [Example 69, 6-(4-(5-chloro-2-(7-oxa-2-azaspiro[3.5]nonan-2-yl)nicotinamido)benzoyl)-N-(2-fluoro-6-methylphenyl)-5,6-dihydro-4H-benzo[b]thieno[2,3-d]azepine-2-carboxamide] | > 13600 | 100 | 96 |  | 
1.2 | 0.18 | [2H]c1c([2H])c(C(=O)N2CCc3cc(C(=O)Nc4c(C)cccc4F)sc3-c3ccccc32)c([2H])c([2H])c1NC(=O)c1cc(C)cnc1N1CC2(CCOCC2)C1 [Example 70] | > 13900 | 100 | 76 |  | 
15.5 | 0.61 | COc1cnc(N2CC3(CCOCC3)C2)c(C(=O)Nc2ccc(C(=O)N3CCc4cc(C(=O)Nc5c(C)cccc5F)sc4-c4ccccc43)cc2)c1 [Example 71, N-(2-fluoro-6-methylphenyl)-6-(4-(5-methoxy-2-(7-oxa-2-azaspiro[3.5]nonan-2-yl)nicotinamido)benzoyl)-5,6-di-hydro-4H-benzo[b]thieno[2,3-d]azepine-2-carboxamide] | > 13700 |  | 100 |  | 100
3.3 | 0.32 | O=C(Nc1c(F)cccc1F)c1cc2c(s1)-c1ccccc1N(C(=O)c1ccc(NC(=O)c3cc(C4CC4)cnc3N3CC4(CCOCC4)C3)cc1)CC2 [Example 72, 6-(4-(5-cyclopropyl-2-(7-oxa-2-azaspiro[3.5]nonan-2-yl)nicotinamido)benzoyl)-N-(2,6-difluorophenyl)-5,6-dihydro-4H-benzo[b]thieno[2,3-d]azepine-2-carboxamide] | > 13400 | 89 | 100 |  | 
